Assay results as given in the supplement of paper PMC10307832.

Legend:
Assay in all cases: relative viability (nuclei count vs DMSO), 5 days (fraction); higher = more cells survive
Ponatinib + Navitoclax = compound: Cc1ccc(C(=O)Nc2ccc(CN3CCN(C)CC3)c(C(F)(F)F)c2)cc1C#Cc1cnc2cccnn12 [Ponatinib] + CC1(C)CCC(c2ccc(Cl)cc2)=C(CN2CCN(c3ccc(C(=O)NS(=O)(=O)c4ccc(N[C@H](CCN5CCOCC5)CSc5ccccc5)c(S(=O)(=O)C(F)(F)F)c4)cc3)CC2)C1 [Navitoclax] (partner 0.5 µM)
Method in brief: (§1)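 Nuclei were stained with Hoechst during a one-step fixation (final 0.05% Triton X-100, 1% formaldehyde, 1 ug/ml Hoechst) carried out 5 days after dosing, then counted on 4× images. The cells, lung cancer lines in 1536-well plates, had been dosed by pin tool the day after seeding with one drug alone or a fixed anchor-drug dose plus five library-drug doses (not always all listed) in √10 steps. Relative viability is the nuclei count in treated wells divided by that in vehicle wells, and each value is the median of duplicate plates.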

Ponatinib + OSI-027 = compound: Cc1ccc(C(=O)Nc2ccc(CN3CCN(C)CC3)c(C(F)(F)F)c2)cc1C#Cc1cnc2cccnn12 [Ponatinib] + COc1cccc2cc(-c3nc([C@H]4CC[C@H](C(=O)O)CC4)n4ncnc(N)c34)[nH]c12 [OSI-027] (partner 0.5 µM)
Method in brief: as §1

Pazopanib + Lapatinib = compound: Cc1ccc(Nc2nccc(N(C)c3ccc4c(C)n(C)nc4c3)n2)cc1S(N)(=O)=O [Pazopanib] + CS(=O)(=O)CCNCc1ccc(-c2ccc3ncnc(Nc4ccc(OCc5cccc(F)c5)c(Cl)c4)c3c2)o1 [Lapatinib] (partner 2 µM)
Method in brief: as §1

Pazopanib + Foretinib = compound: Cc1ccc(Nc2nccc(N(C)c3ccc4c(C)n(C)nc4c3)n2)cc1S(N)(=O)=O [Pazopanib] + COc1cc2c(Oc3ccc(NC(=O)C4(C(=O)Nc5ccc(F)cc5)CC4)cc3F)ccnc2cc1OCCCN1CCOCC1 [Foretinib] (partner 0.25 µM)
Method in brief: as §1

In the case of UMC-11, the relative viability (Ponatinib + Navitoclax; first compound 0.002 µM) is reported as 0.311, the relative viability (Ponatinib + Navitoclax; first compound 0.006325 µM) is reported as 0.354 and the relative viability (Ponatinib + Navitoclax; first compound 0.06325 µM) is reported as 0.38. It also gave a relative viability (Ponatinib + Navitoclax; first compound 0.2 µM) of 0.345, a relative viability (Ponatinib + OSI-027; first compound 0.002 µM) of 0.47 and a relative viability (Ponatinib + OSI-027; first compound 0.006325 µM) of 0.49. For the same cell line, the relative viability (Ponatinib + OSI-027; first compound 0.06325 µM) was 0.555, the relative viability (Ponatinib + OSI-027; first compound 0.2 µM) was 0.525 and the relative viability (Pazopanib + Lapatinib; first compound 0.01 µM) was 0.807. For the same cell line, the relative viability (Pazopanib + Lapatinib; first compound 0.03162 µM) was 1.03, the relative viability (Pazopanib + Lapatinib; first compound 0.1 µM) was 0.939 and the relative viability (Pazopanib + Lapatinib; first compound 0.3162 µM) was 1.01. The relative viability (Pazopanib + Lapatinib; first compound 1 µM) was 1.12, the relative viability (Pazopanib + Foretinib; first compound 0.01 µM) was 0.958 and the relative viability (Pazopanib + Foretinib; first compound 0.03162 µM) was 1.16. For the same cell line, the relative viability (Pazopanib + Foretinib; first compound 0.1 µM) was 1.19, the relative viability (Pazopanib + Foretinib; first compound 0.3162 µM) was 1.07 and the relative viability (Pazopanib + Foretinib; first compound 1 µM) was 1.13.
